The record followed here is patent publication US12064516B2, “Pharmaceutical formulations and uses thereof” (Aldeyra Therapeutics, Inc., priority 2020, dated 2024).

For orientation: Vss means the apparent volume that relates the amount in the body to the concentration in plasma or blood. A high value points to extensive tissue distribution. A word on the AUC(0-inf): it is the area under the concentration-time curve extrapolated to infinity. A low value points to less exposure. A word on the AUC(0-t): it is the area under the concentration-time curve up to a stated or last time point. Low readings indicate less exposure, high ones more exposure. A word on the Cmax: it is the peak of the concentration-time curve. As a reminder, the Tmax is the time at which the peak concentration occurs.

The data set is described as follows: Pharmacokinetic comparison of ADX-102 (reproxalap) and compound I-1 in rats. Type of data set: in vivo, Sprague-Dawley rats. The settings on record: SD Rat.
The mark [1] stands for this setting: oral gavage 10 mg/kg, CMC/Tween.

Marks after values point to notes of the source that are not given here.

`CC(C)(O)c1nc2ccc(Cl)cc2cc1N` [ADX-102] returned a Vss (intravenous data using captisol formulation) of 1.36 L/kg. The CL (intravenous data using captisol formulation, in mL/min/kg) was 23**. For the same compound, under setting [1], the “AUC 0-inf/Dose” value was 64, the “AUC 0-t/Dose” value is given as 60, the AUC(0-inf) was determined as 640 ng·h/mL and the exposure AUC(0-t) is 595 ng·h/mL. Moreover, under setting [1], the concentration peaked (Cmax) at 390 ng/mL, the Tmax stood at 0.5 h and the t1/2 was 2.27 h.
